Experimental data reported in US20230220206A1, “REJUVENATING AGENTS FOR ASPHALT RECYCLING” (BASF SE, priority 2020, published 2023).
Read-outs that look alike come from different tables or passages of the source.

Columns and labels:
[1] = Low temperature performance, bending beam rheometer (BBR) at −16° C.; assay type: physicochemical; conditions: bitumen 20/30 + 5% compound
Method: (§1) Different bitumen samples were rejuvenated as in Example 1, and the BBR values S (flexural creep stiffness) and m […] were evaluated at −16° C. The results were compared to the not rejuvenated bitumen sample as well as to the bitumen rejuvenated with the benchmark RheoFalt® HP-AM (Comp. 1.3).

[2] = MSCR test, percentage elastic recovery; assay type: physicochemical; conditions: bitumen 20/30 + 5% compound
[3] = Softening point of rejuvenated RAP bitumen; assay type: physicochemical; conditions: bitumen extracted from RAP + 5% compound
[4] = BBR of rejuvenated polymer-modified bitumen; assay type: physicochemical; conditions: Olexobit 45 + 5% compound
Method: as §1

[5] = Softening point of rejuvenated polymer-modified bitumen; assay type: physicochemical; conditions: Olexobit 45 + 5% compound
[6] = bitumen 20/30 + 5% compound
[7] = TD NMR relaxation time measurements (SE-CPMG, multicomponent fitting); assay type: physicochemical; conditions: for 1/<1/T2e>: harmonic average relaxation time of the mobile components
From the text: TD NMR, also known as NMR relaxometry, is a known NMR technique and relies on measuring the relaxation times of the nuclear spin system instead of frequency-domain spectra. […] Also, sample preparation is much simpler as there are no concerns about sample homogeneity and no solvents are needed.
Like that, a clear distinction between protons in a solid, amorphous and liquid component can be made with good accuracy.
Bitumen 20/30 was rejuvenated with some of the here claimed rejuvenating agents according to example 1. The pure bitumen 20/30 as well as the rejuvenated bitumen 20/30 samples were then analyzed by TD NMR. To do so, all samples were heated up to 80° C. to allow filling of the samples into NMR tubes. After that, TD NMR measurements at 30° C., 80° C. and 140° C. were conducted using the SE-CMPG sequence. This sequence consists of a solid echo combined with a so-called CPMG (Carr-Purcell-Meiboom-Gill) train of subsequent spin echoes with alternating phase and is capable of recording the decay of coherence in the transverse nuclear magnetization over about 5 orders of magnitude in time. Depending on the measurement temperature, the experimental data were then fitted with semi-empirically selected multicomponent models involving several Gaussian and exponential components:
S(t)=[pg1 exp(−(t/T2g1)^2)+pg2 exp(−(t/T2g2)^2)]+pe1 exp(−t/T2e1)[pe2 exp(−t/T2e2)+pe3 exp(−t/T2e3)]
In order to assess the effect of temperature on the molecular mobility of the bitumen, experiments were conducted at temperatures of 30° C., 80° C. and 140° C., and the following models turned out to provide adequate fits of the respective normalized signal decay curves: • two Gaussians and one exponential at 30° C., • two Gaussians and two exponentials at 80° C., • three exponentials at 140° C.
From the fitting, different values can be obtained: • The p values (pg1, pg2, pe1, pe2 and pe3), indicating the signal fraction of the individual component scaled in the range from 0 to 1 • The T2 values (T2g1, T2g2, T2e1, T2e2 and T2e3), indicating the relaxation times that correspond to each of the individual components. The longer the relaxation time, the higher the molecular mobility of the respective component • In addition to the values T2e1, T2e2 and T2e3, we also calculated the average relaxation time of the mobile components, 1/<1/T2e>, for the temperatures at which more than one mobile component exist (80 and 140° C.). 1/<1/T2e> Is calculated as the harmonic average of the relaxation times involved:
[formula] • The type of the component, those being: • g1: the rigid component • g2: the partially mobile component • e1, e2 and e3: mobile components with increasingly high local molecular mobilities
It is believed that the rigid component g1 is directly correlated with the amount of the asphaltene aggregates. The mobile component(s) on the other hand can be attributed to the maltene phase.

[8] = Softening point of rejuvenated aged bitumen; assay type: physicochemical; conditions: aged bitumen 50/70 PCK Schwedt + 5% compound
[9] = MSCR elastic recovery of rejuvenated aged bitumen; assay type: physicochemical; conditions: aged bitumen 50/70 BP + 5% compound
[10] = assay type: physicochemical; conditions: aged bitumen 50/70 BP + 5% compound
[11] = Force ductility of rejuvenated polymer-modified bitumen; assay type: physicochemical; conditions: Olexobit 45 + 5% compound
From the text: Herewith, it will be shown that the positive effects of the here claimed rejuvenating agents can also be applied to PmB, in this case Olexobit 45. Olexobit 45 was therefore rejuvenated according to the procedure of Example 1.

[12] = assay type: physicochemical; conditions: Olexobit 45 + 5% compound
[13] = assay type: physicochemical; conditions: aged bitumen 50/70 PCK Schwedt + 5% compound
[14] = Softening point of rejuvenated aged bitumen; assay type: physicochemical; conditions: aged bitumen 50/70 BP + 5% compound
[15] = MSCR elastic recovery of rejuvenated polymer-modified bitumen; assay type: physicochemical; conditions: Olexobit 45 + 5% compound
[16] = Loss tangent from DSR frequency sweep at 60° C.; assay type: physicochemical
From the text: In addition, it could be shown that additives according to the present invention perform most of the times better than the common benchmarks according to the standard testing techniques for the low, mid and high temperature range. What cannot be extracted from these measurements however is an indication of the working mechanism.

[17] = 30° C., bitumen 20/30 + additive
[18] = 80° C., bitumen 20/30 + additive
[19] = 140° C., bitumen 20/30 + additive

Polypropylenglycol bis glycidylether
S-value [MPa] (flexural creep stiffness) [1]: 105 MPa
m-value [1]: 0.43
MSCR % Rec. (0.1 kPa) ([2]; 0.1 kPa): 8%
MSCR % Rec. (1.6 kPa) ([2]; 1.6 kPa): 2%
MSCR % Rec. (3.2 kPa) ([2]; 3.2 kPa): 1%
SP [° C.] [3]: 57.0 °C
BBR S-value [MPa] [4]: 120 MPa
BBR m-value [4]: 0.39
SP [° C.] [5]: 48.0 °C
η(135° C.) [mPas] [6]: 900 mPas
T2e1 [7, 17]: 0.20 ms
T2g1 [7, 17]: 0.016 ms
T2g2 [7, 17]: 0.044 ms
pe1 ([7]; 30° C., mobile component, bitumen 20/30 + additive): 0.41
pg2 ([7]; 30° C., partially mobile component, bitumen 20/30 + additive): 0.18
pg1 ([7]; 30° C., signal fraction of rigid component, bitumen 20/30 + additive): 0.40
T2e1 [7, 18]: 0.47 ms
T2e2 [7, 18]: 2.42 ms
T2g1 [7, 18]: 0.017 ms
T2g2 [7, 18]: 0.053 ms
pe1 [7, 18]: 0.46
pe2 [7, 18]: 0.35
pg1 [7, 18]: 0.10
pg2 [7, 18]: 0.078
1/<1/T2e> ([7]; 80° C.): 0.72 ms
T2e1 [7, 19]: 0.20 ms
T2e2 [7, 19]: 4.45 ms
T2e3 [7, 19]: 24.51 ms
pe1 [7, 19]: 0.18
pe2 [7, 19]: 0.47
pe3 [7, 19]: 0.34
1/<1/T2e> ([7]; 140° C.): 0.94 ms
SP [° C.] [8]: 52.5 °C
MSCR % Rec. (0.1 kPa) ([9]; 0.1 kPa): 7%
MSCR % Rec. (1.6 kPa) ([9]; 1.6 kPa): 3%
MSCR % Rec. (3.2 kPa) ([9]; 3.2 kPa): 1%
η(135° C.) [mPas] [10]: 800 mPas
Force Ductility Fmax [N] [11]: 14 N
Force Ductility W [J/cm^2] [11]: 1.1 J/cm^2
η(135° C.) [mPas] [12]: 650 mPas
η(135° C.) [mPas] [13]: 800 mPas
SP [° C.] [14]: 54.0 °C
MSCR % Rec. (0.1 kPa) ([15]; 0.1 kPa): 15%
MSCR % Rec. (1.6 kPa) ([15]; 1.6 kPa): 4%
MSCR % Rec. (3.2 kPa) ([15]; 3.2 kPa): 1%
tan δ ([16]; aged bitumen 50/70 BP + 5% compound, lowest frequency): 75
tan δ ([16]; aged bitumen 50/70 PCK Schwedt + 5% compound, lowest frequency): 105
tan δ ([16]; bitumen 20/30 + 5% compound, lowest frequency (0.01 rad/s)): 55
tan δ ([16]; bitumen extracted from RAP + 5% compound, lowest frequency): 45
